Experimental data published in patent publication US20260193222A1, “COMPOUND AND USE THEREOF IN TREATMENT OF TREG-RELATED DISEASES” (BENETHERA (SHAOXING) BIOTECHNOLOGY CO., LTD., priority 2022, published 2026).

Columns and labels:
[1] = O-1602 release of O-1602 derivatives under different pH conditions (HPLC area percentage); assay type: physicochemical; conditions: for completeness of O-1602 release (in words): partial release with degradation into other impurities
Experimental: Example 1: Experimental on O-1602 Releases of O-1602 Derivatives Under Different pH Conditions
• Chromatographic column: shimnex CS C18 5 μm, 4.6*250 mm • Mobile phase A: 0.1% phosphoric acid in water; mobile phase B: acetonitrile (see Table 1)
Buffer solution (pH 1.6): 32.4 ml of 0.2 mol/L hydrochloric acid was accurately measured, diluted with water to 200 ml, and shaken well.
Phosphate buffer (pH 5.0): a certain amount of 0.2 mol/L sodium dihydrogen phosphate solution was taken and the pH value was adjusted by using 0.2 mol/L sodium hydroxide solution to 5.0.
Phosphate buffer (pH 6.8): a certain amount of 0.2 mol/L sodium dihydrogen phosphate solution was taken and the pH value was adjusted by using 0.2 mol/L sodium hydroxide solution to 6.8.
Phosphate buffer (pH 7.2): a certain amount of 0.2 mol/L sodium dihydrogen phosphate solution was taken and the pH value was adjusted by using 0.2 mol/L sodium hydroxide solution to 7.2.
Phosphate buffer (pH 8.0): a certain amount of 0.2 mol/L sodium dihydrogen phosphate solution was taken and the pH value was adjusted by using 0.2 mol/L sodium hydroxide solution to 8.0.
About 1 mg of O-1602 derivative was placed in a 2 mL centrifuge tube and dissolved by adding 1 mL of acetonitrile. Then 1 mL of buffer solution was added and shaken well. The obtained solution was incubated at 37° C., and sampled for determination respectively after for 2 hours and 4 hours. (The releases of O-1602 were respectively investigated at pH 1.6, pH 5.0, pH 6.8, pH 7.2, and pH 8.0)
Calculations: the content of O-1602 was calculated by area percentage.

[2] = tested on: CS7BL/6 mice with TNBS-induced acute enteritis; test: 2,4,6-trinitrobenzene sulfonic acid (TNBS)-induced acute enteritis in mice; assay type: in vivo; conditions: for disease activity index (DAI) / damage to colon tissue / length of colon / weight loss in model animals: 1 mg/kg, once daily gavage; for disease activity index (DAI): day 0 to day 4, FIG. 3; for damage to colon tissue: dissection on day 5, FIG. 5; for length of colon: dissection on day 5, FIGS. 4 and 5; for efficacy compared with tofacitinib: derivative 1 mg/kg versus positive control tofacitinib; for weight loss in model animals: day 0 to day 4, FIG. 2
Experimental: CS7BL/6 mice, male, and female, 6 to 10 weeks old were used. On day-7 of the experiment, the experimental animals were weighed, and the mice were randomly divided into cages according to their body weights. The animals were allowed to adapt to the environment of the animal room. The animal room was maintained at a constant temperature (23° C.±3° C.) and constant humidity (50% relative humidity). Animals are fed standard laboratory food and have free access to drinking water. On day 0, mice were induced for TNBS colitis by intrarectal injection. The dosage of TNBS was 125 mg/kg. The solvent was 30% alcohol. Each mouse received a volume of 100 μl. After the rectal injection, the mice were inverted for 1 minute to prevent leakage of the drug solution.
The solid O-1602 derivative was dissolved in DMSO at a concentration of 2 mg/ml. The above solution was diluted to 0.1 mg/ml using PBS. TNBS enteritis mice received once daily gavage in a volume of 200 μl and were dosed daily at 11:00 a. m. The dosage of the O-1602 derivative was 1 mg/kg. The treatment schedule for the O-1602 derivative was from day 0 to day 4 of the TNBS. The mice in the control group were administered with an equal volume of solvent by gavage. At the same time, the anti-colitis drug JAK inhibitor tofacitinib was used as a positive control. The experimental results of O-1602 derivatives in this model experiment were compared. The O-1602 derivatives were dissolved in the above-mentioned way; the concentration was 1.5 mg/mL; the volume of intragastric administration was 200 μL; and the dosage was 15 mg/kg.
Mice were observed daily for body weight and anal bleeding, and the daily disease activity index (DAI) was calculated and recorded.
The experiment was terminated on day 5 of TNBS. Mice were euthanized by cervical amputation under isoflurane anesthesia. The mice were dissected and the whole colon was obtained. The length of the colon was measured and photographed.

[3] = pH 1.6~8.0, 37° C., 2 hours and 4 hours

For `C=C(C)[C@@H]1CCC(C)=C[C@H]1c1c(C)cc(OC(C)=O)cc1OC(C)=O` [Compound 2], the “release amount of O-1602 (in words)” value [1, 3] was “no O-1602 was released”.

For `C=C(C)[C@@H]1CCC(C)=C[C@H]1c1c(C)cc(OC(=O)NCCN2CCN(C)CC2)cc1OC(=O)NCCN1CCN(C)CC1` [Compound 11], the “release amount of O-1602 (in words)” value [1, 3] was “small amount”, the “disease activity index (DAI)” value [2] was “significantly alleviated” and the “damage to colon tissue” value [2] was “reduced”. For the same compound, the length of colon [2] was “increased” and the “efficacy compared with tofacitinib” value [2] was “superior efficacy”.

For `C=C(C)[C@@H]1CCC(C)=C[C@H]1c1c(C)cc(OC(=O)CN(C)C)cc1O` [Compound 13], the “O-1602 release (in words)” value ([1]; acidic buffer solution (pH 1.6), 37° C., 4 hours) was “trace amount” and the “release amount of O-1602 (in words)” value [1, 3] was “small amount”.

With `C=C(C)[C@@H]1CCC(C)=C[C@H]1c1c(C)cc(OC(=O)OCCN(CC)CC)cc1OC(=O)OCCN(CC)CC` [Compound 1] the Principal component % ([1]; 0 h) was 97.185%, the Principal component % ([1]; Buffer (pH 1.6), 37° C., 2 h) was 96.906% and the Principal component % ([1]; Buffer (pH 1.6), 37° C., 4 h) was 94.115%. It also gave a Principal component % ([1]; Buffer (pH 5.0), 37° C., 2 h) of 78.030%, an O-1602% ([1]; Buffer (pH 5.0), 37° C., 4 h) of 0.457% and a Principal component % ([1]; Buffer (pH 5.0), 37° C., 4 h) of 24.651%. For the same compound, the O-1602% ([1]; Buffer (pH 6.8), 37° C., 2 h) was 9.801%, the O-1602% ([1]; Buffer (pH 6.8), 37° C., 4 h) was 20.813% and the O-1602% ([1]; Buffer (pH 7.2), 37° C., 2 h) was 6.354%. The O-1602% ([1]; Buffer (pH 7.2), 37° C., 4 h) was 20.172%, the O-1602% ([1]; Buffer (pH 8.0), 37° C., 2 h) was 11.455% and the O-1602% ([1]; Buffer (pH 8.0), 37° C., 4 h) was 33.963%. The “release amount of O-1602 (in words)” value [1, 3] was “relatively high”, the “completeness of O-1602 release (in words)” value ([1]; pH 1.6~8.0, 37° C.) was “only partially released” and the “weight loss in model animals” value [2] was “significantly alleviated”.

In the case of `C=C(C)[C@@H]1CCC(C)=C[C@H]1c1c(C)cc(OC(=O)NCCCCN)cc1O` [Compound 6], the “release amount of O-1602 (in words)” value [1, 3] was “small amount”, the “weight loss in model animals” value [2] was “significantly alleviated” and the “disease activity index (DAI)” value [2] was “significantly alleviated”. The “damage to colon tissue” value [2] was “reduced”, the length of colon [2] was “increased” and the “efficacy compared with tofacitinib” value [2] was “superior efficacy”.

For `C=C(C)[C@@H]1CCC(C)=C[C@H]1c1c(C)cc(OC(=O)C(N)C(C)C)cc1OC(=O)C(N)C(C)C` (stereo partly shown) [Compound 7], the Principal component % ([1]; 0 h) was 87.691%, the Principal component % ([1]; Buffer (pH 1.6), 37° C., 2 h) was 79.094% and the Principal component % ([1]; Buffer (pH 1.6), 37° C., 4 h) was 81.424%. The O-1602% ([1]; Buffer (pH 5.0), 37° C., 2 h) was 1.088%, the Principal component % ([1]; Buffer (pH 5.0), 37° C., 2 h) was 26.693% and the O-1602% ([1]; Buffer (pH 5.0), 37° C., 4 h) was 3.800%. It also gave a Principal component % ([1]; Buffer (pH 5.0), 37° C., 4 h) of 8.307%, an O-1602% ([1]; Buffer (pH 6.8), 37° C., 2 h) of 1.972% and a Principal component % ([1]; Buffer (pH 6.8), 37° C., 2 h) of 3.401%. The O-1602% ([1]; Buffer (pH 6.8), 37° C., 4 h) was 3.518%, the Principal component % ([1]; Buffer (pH 6.8), 37° C., 4 h) was 1.551% and the O-1602% ([1]; Buffer (pH 7.2), 37° C., 2 h) was 29.354%. For the same compound, the O-1602% ([1]; Buffer (pH 7.2), 37° C., 4 h) was 19.343%, the O-1602% ([1]; Buffer (pH 8.0), 37° C., 2 h) was 11.933% and the O-1602% ([1]; Buffer (pH 8.0), 37° C., 4 h) was 43.976%. For the same compound, the “release amount of O-1602 (in words)” value [1, 3] was “relatively high”, the “completeness of O-1602 release (in words)” value ([1]; pH 1.6~8.0, 37° C.) was “only partially released” and the “weight loss in model animals” value [2] was “significantly alleviated”. For the same compound, the “disease activity index (DAI)” value [2] was “significantly alleviated”, the “damage to colon tissue” value [2] was “reduced” and the length of colon [2] was “increased”. For the same compound, the “efficacy compared with tofacitinib” value [2] was “superior efficacy”.

In the case of `C=C(C)[C@@H]1CCC(C)=C[C@H]1c1c(C)cc(OC(=O)NC(C(=O)O)C(C)C)cc1OC(=O)NC(C(=O)O)C(C)C` (stereo partly shown) [Compound 3], the “weight loss in model animals” value [2] was “significantly alleviated”, the “disease activity index (DAI)” value [2] was “significantly alleviated” and the “damage to colon tissue” value [2] was “reduced”. For the same compound, the length of colon [2] was “increased” and the “efficacy compared with tofacitinib” value [2] was “superior efficacy”.

In the case of `C=C(C)[C@@H]1CCC(C)=C[C@H]1c1c(C)cc(OC(=O)N(C)C)cc1OC(=O)N(C)C` [Compound 8], the “release amount of O-1602 (in words)” value [1, 3] was “no O-1602 was released” and the “stability (in words)” value [1, 3] was “good stability”.
